Calls of active or inactive are those of the source. The rule behind the calls is not given here.
Legend:
Homo sapiens [1] = species: Homo sapiens; test: Inhibition of EGFR L858R/T790M double mutant (unknown origin) measured at 0.1 uM by ELISA
Homo sapiens [2] = species: Homo sapiens; test: Inhibition of EGFR L858R/T790M double mutant (unknown origin) measured at 1 uM by ELISA
A549 [3] = test: Inhibition of cell migration in human A549 cells measured after 12 to 36 hours by fluorescence microscopy based wound healing assay; format: functional; conditions: dose 1-5 µM, time 12-36 hrs
A549 [4] = test: Cytotoxicity against human A549 cells assessed as reduction in cell viability measured by MTT assay; format: functional, cell-based
A-431 = test: Cytotoxicity against human A-431 cells assessed as reduction in cell viability measured by MTT assay; format: functional, cell-based
NCI-H1975 [5] = test: Cytotoxicity against human NCI-H1975 cells assessed as reduction in cell viability measured by MTT assay; format: functional, cell-based
[6] = Inhibition of EGFR L858R/T790M double mutant (unknown origin) measured by ELISA; parameters: species or system Homo sapiens
[7] = molecular target: Epidermal growth factor receptor (Homo sapiens, UniProt P00533); test: Inhibition of wild type EGFR (unknown origin) measured by ELISA
Epidermal growth factor receptor, sequence (P00533 whole entry): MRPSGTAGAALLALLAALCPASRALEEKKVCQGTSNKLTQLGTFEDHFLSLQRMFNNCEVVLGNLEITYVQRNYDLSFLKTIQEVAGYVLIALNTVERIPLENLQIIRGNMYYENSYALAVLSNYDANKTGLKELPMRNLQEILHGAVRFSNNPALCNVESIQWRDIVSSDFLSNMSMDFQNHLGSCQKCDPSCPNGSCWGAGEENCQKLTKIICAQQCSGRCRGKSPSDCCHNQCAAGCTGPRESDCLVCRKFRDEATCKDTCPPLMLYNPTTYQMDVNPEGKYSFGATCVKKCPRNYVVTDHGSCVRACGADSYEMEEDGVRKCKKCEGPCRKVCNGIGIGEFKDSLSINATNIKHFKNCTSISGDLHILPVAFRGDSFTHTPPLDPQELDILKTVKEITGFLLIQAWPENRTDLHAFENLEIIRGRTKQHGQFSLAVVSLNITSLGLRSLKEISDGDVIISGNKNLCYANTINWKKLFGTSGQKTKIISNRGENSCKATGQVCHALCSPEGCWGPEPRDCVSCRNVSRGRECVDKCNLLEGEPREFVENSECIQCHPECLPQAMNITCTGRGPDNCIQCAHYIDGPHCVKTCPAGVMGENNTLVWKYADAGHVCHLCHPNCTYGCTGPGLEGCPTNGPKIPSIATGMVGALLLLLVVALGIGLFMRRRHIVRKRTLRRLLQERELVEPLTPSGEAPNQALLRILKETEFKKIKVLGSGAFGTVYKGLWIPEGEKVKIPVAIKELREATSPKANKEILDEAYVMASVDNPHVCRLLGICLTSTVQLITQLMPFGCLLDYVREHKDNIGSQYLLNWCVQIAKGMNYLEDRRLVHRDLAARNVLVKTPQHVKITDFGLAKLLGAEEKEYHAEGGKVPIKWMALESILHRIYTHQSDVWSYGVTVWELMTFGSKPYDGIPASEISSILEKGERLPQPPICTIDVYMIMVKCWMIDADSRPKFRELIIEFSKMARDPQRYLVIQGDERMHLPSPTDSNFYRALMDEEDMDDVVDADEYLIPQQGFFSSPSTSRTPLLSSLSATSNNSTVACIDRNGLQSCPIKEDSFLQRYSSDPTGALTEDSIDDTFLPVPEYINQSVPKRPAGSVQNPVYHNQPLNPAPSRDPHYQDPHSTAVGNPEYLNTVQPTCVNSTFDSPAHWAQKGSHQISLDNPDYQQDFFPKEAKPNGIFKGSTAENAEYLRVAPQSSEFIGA

[8] = Inhibition of EGFR L858R/T790M/C797S triple mutant (unknown origin) measured by ELISA; parameters: species or system Homo sapiens
A549 [9] = test: Antiproliferative activity against human A549 cells assessed as reduction in cell growth incubated for 24 hrs by AO/EB staining based inverted fluorescence microscopic analysis; format: functional; conditions: dose 1-25 µM
NCI-H1975 [10] = test: Induction of apoptosis in human NCI-H1975 cells assessed as live cells at 0.2 uM measured after 48 hrs by annexinV-FITC and propidium iodide double staining based flow cytometry analysis (reference value: 94.92 %); format: functional
NCI-H1975 [11] = test: Induction of apoptosis in human NCI-H1975 cells assessed as early apoptotic cells at 0.2 uM measured after 48 hrs by annexinV-FITC and propidium iodide double staining based flow cytometry analysis (reference value: 3.24 %); format: functional
NCI-H1975 [12] = test: Induction of apoptosis in human NCI-H1975 cells assessed as late apoptotic cells at 0.2 uM measured after 48 hrs by annexinV-FITC and propidium iodide double staining based flow cytometry analysis (reference value: 1.56 %); format: functional
NCI-H1975 [13] = test: Induction of apoptosis in human NCI-H1975 cells assessed as necrotic cells at 0.2 uM measured after 48 hrs by annexinV-FITC and propidium iodide double staining based flow cytometry analysis (reference value: 0.28 %); format: functional
NCI-H1975 [14] = test: Induction of apoptosis in human NCI-H1975 cells assessed as live cells at 1 uM measured after 48 hrs by annexinV-FITC and propidium iodide double staining based flow cytometry analysis (reference value: 94.92 %); format: functional
NCI-H1975 [15] = test: Induction of apoptosis in human NCI-H1975 cells assessed as early apoptotic cells at 1 uM measured after 48 hrs by annexinV-FITC and propidium iodide double staining based flow cytometry analysis (reference value: 3.24 %); format: functional
NCI-H1975 [16] = test: Induction of apoptosis in human NCI-H1975 cells assessed as late apoptotic cells at 1 uM measured after 48 hrs by annexinV-FITC and propidium iodide double staining based flow cytometry analysis (reference value: 1.56 %); format: functional
NCI-H1975 [17] = test: Induction of apoptosis in human NCI-H1975 cells assessed as necrotic cells at 1 uM measured after 48 hrs by annexinV-FITC and propidium iodide double staining based flow cytometry analysis (reference value: 0.28 %); format: functional
NCI-H1975 [18] = test: Induction of apoptosis in human NCI-H1975 cells assessed as live cells at 5 uM measured after 48 hrs by annexinV-FITC and propidium iodide double staining based flow cytometry analysis (reference value: 94.92 %); format: functional
NCI-H1975 [19] = test: Induction of apoptosis in human NCI-H1975 cells assessed as early apoptotic cells at 5 uM measured after 48 hrs by annexinV-FITC and propidium iodide double staining based flow cytometry analysis (reference value: 3.24 %); format: functional
NCI-H1975 [20] = test: Induction of apoptosis in human NCI-H1975 cells assessed as late apoptotic cells at 5 uM measured after 48 hrs by annexinV-FITC and propidium iodide double staining based flow cytometry analysis (reference value: 1.56 %); format: functional
NCI-H1975 [21] = test: Induction of apoptosis in human NCI-H1975 cells assessed as necrotic cells at 5 uM measured after 48 hrs by annexinV-FITC and propidium iodide double staining based flow cytometry analysis (reference value: 0.28 %); format: functional
A549 [22] = test: Induction of apoptosis in human A549 cells assessed as chromatin contraction at 25 uM measured after 24 hrs by AO/EB staining based inverted fluorescence microscopic analysis; format: functional, cell-based
Homo sapiens [23] = species: Homo sapiens; test: Selectivity ratio of IC50 for EGFR L858R/T790M double mutant (unknown origin) to IC50 for wildtype EGFR (unknown origin) measured by ELISA

Row | SMILES | inhibition (Homo sapiens [1]) | inhibition (Homo sapiens [2]) | IC50 (A549 [4]) | IC50 (A-431) | IC50 (NCI-H1975 [5]) | other results
1 | C=CC(=O)Nc1cc(Nc2nccc(N3CCc4sccc4C3)n2)c(OC)cc1N(C)CCN(C)C | 54.1% | 76.3% | – | – | – | –
2 | CCC(=O)Nc1cc(Nc2nccc(N3CCc4sccc4C3)n2)c(OC)cc1N(C)CCN(C)C | 67.7% | 82.2% | – | – | – | –
3 | COc1cc(NC(=O)CN(C)C)ccc1Nc1nccc(N2CCc3sccc3C2)n1 | 5% | 22.5% | – | – | – | –
4 | CCC(=O)Nc1cc(Nc2ncc(Cl)c(N3CCc4sccc4C3)n2)c(OC)cc1N(C)CCN(C)C | 97.9% | 99.2% | 460 nM | 2190 nM | 86 nM | inhibition (A549 [3]): Dose-Dependent Effect; IC50 [6]: 4 nM; IC50 [7]: 170 nM; IC50 [8]: 360 nM; Activity (A549 [9]): Dose-Dependent Effect; Activity (NCI-H1975 [10]): 90.82%; Activity (NCI-H1975 [11]): 5.23%; Activity (NCI-H1975 [12]): 3.44%; Activity (NCI-H1975 [13]): 0.51%; Activity (NCI-H1975 [14]): 86.69%; Activity (NCI-H1975 [15]): 7.49%; Activity (NCI-H1975 [16]): 4.98%; Activity (NCI-H1975 [17]): 0.84%; Activity (NCI-H1975 [18]): 71.42%; Activity (NCI-H1975 [19]): 15.91%; Activity (NCI-H1975 [20]): 11.42%; Activity (NCI-H1975 [21]): 1.25%; Activity (A549 [22]): Active; Ratio IC50 (Homo sapiens [23]): 42.5
5 | COc1cc(N(C)CCN(C)C)c(NC(=O)/C=C/C(C)C)cc1Nc1ncc(Cl)c(N2CCc3sccc3C2)n1 | – | – | 4590 nM | 21300 nM | 472 nM | –
6 | C=CC(=O)Nc1cc(Nc2ncc(Cl)c(N3CCc4sccc4C3)n2)c(OC)cc1N1CCN(C)CC1 | – | – | 1560 nM | > 50000 nM | 197 nM | IC50 [6]: 294 nM; IC50 [7]: > 4000 nM; IC50 [8]: 659 nM; Ratio IC50 (Homo sapiens [23]): > 13.6
7 | C=CC(=O)Nc1cc(Nc2nccc(N3CCc4sccc4C3)n2)c(OC)cc1N(CC)CC | 13.5% | 42.6% | – | – | – | –
8 | CCN(CC)C/C=C/C(=O)Nc1ccc(OC)c(Nc2nccc(N3CCc4sccc4C3)n2)c1 | 36.8% | 77.5% | – | – | – | –
9 | COc1ccc(NC(=O)/C=C/CN(C)C)cc1Nc1nccc(N2CCc3sccc3C2)n1 | 42.2% | 80.1% | – | – | – | –
10 | COc1cc(NC(=O)CN2CCN(C)CC2)ccc1Nc1nccc(N2CCc3sccc3C2)n1 | 16.3% | 58.3% | – | – | – | –
11 | CCN1CCN(CC(=O)Nc2ccc(Nc3nccc(N4CCc5sccc5C4)n3)c(OC)c2)CC1 | 9.9% | 36.6% | – | – | – | –
12 | C=CC(=O)Nc1ccc(OC)c(Nc2ncc(Cl)c(N3CCc4sccc4C3)n2)c1 | – | – | 6910 nM | 90900 nM | 786 nM | –
13 | C=CC(=O)Nc1cc(Nc2nccc(N3CCc4sccc4C3)n2)c(OC)cc1N1CCN(C)CC1 | 33.5% | 56.5% | – | – | – | –
14 | C=CC(=O)Nc1cc(Nc2nccc(N3CCc4sccc4C3)n2)c(OC)cc1N1CCN(CC)CC1 | 5.4% | 15.8% | – | – | – | –
15 | COc1cc(NC(=O)CN2CCN(CCO)CC2)ccc1Nc1nccc(N2CCc3sccc3C2)n1 | 10.9% | 45.2% | – | – | – | –
16 | C/C=C/C(=O)Nc1cc(Nc2ncc(Cl)c(N3CCc4sccc4C3)n2)c(OC)cc1N(C)CCN(C)C | – | – | 251 nM | 152 nM | 133 nM | IC50 [6]: 12.1 nM; IC50 [7]: 353 nM; Ratio IC50 (Homo sapiens [23]): 2.9
17 | C=CC(=O)Nc1cc(Nc2nccc(N3CCc4sccc4C3)n2)c(OC)cc1N1CCOCC1 | 20.9% | 50.6% | – | – | – | –
18 | COc1cc(N(C)CCN(C)C)c(NC(=O)C=C(C)C)cc1Nc1ncc(Cl)c(N2CCc3sccc3C2)n1 | – | – | 5100 nM | > 50000 nM | 280 nM | IC50 [6]: 16.3 nM
19 | C=C(Cl)C(=O)Nc1cc(Nc2ncc(Cl)c(N3CCc4sccc4C3)n2)c(OC)cc1N(C)CCN(C)C | – | – | 654 nM | 13700 nM | 92 nM | inhibition (A549 [3]): Dose-Dependent Effect; IC50 [6]: 3.6 nM; IC50 [7]: 96.3 nM; IC50 [8]: 466 nM; Activity (A549 [9]): Dose-Dependent Effect; Activity (A549 [22]): Active; Ratio IC50 (Homo sapiens [23]): 26.7
20 | CCC(=O)Nc1ccc(OC)c(Nc2ncc(Cl)c(N3CCc4sccc4C3)n2)c1 | – | – | 31300 nM | > 200000 nM | 15200 nM | –
21 | COc1cc(NC(=O)CN2CCOCC2)ccc1Nc1nccc(N2CCc3sccc3C2)n1 | 3.2% | 13.9% | – | – | – | –
22 | C=CC(=O)Nc1cc(Nc2nccc(N3CCc4sccc4C3)n2)c(OC)cc1N1CCCC1 | 14.9% | 43.5% | – | – | – | –
23 | C=CC(=O)Nc1cc(Nc2nccc(-c3cn(C)c4ccccc34)n2)c(OC)cc1N(C)CCN(C)C [OSIMERTINIB] | 97.3% | 99.5% | – | – | […] | IC50 [6]: 3.4 nM; IC50 [8]: 129 nM
24 | C=CC(=O)Nc1cc(Nc2ncc(Cl)c(N3CCc4sccc4C3)n2)c(OC)cc1N(C)CCN(C)C | 85% | 97% | 166 nM | 5490 nM | 242 nM | IC50 [6]: 3.9 nM; IC50 [7]: 6.4 nM; Ratio IC50 (Homo sapiens [23]): 7
25 | C=CC(=O)Nc1cc(Nc2nccc(N3CCc4sccc4C3)n2)c(OC)cc1N(C)C | 2.3% | 18.2% | – | – | – | –
26 | COc1cc(NC(=O)CN2CCC(C)CC2)ccc1Nc1nccc(N2CCc3sccc3C2)n1 | 4.5% | 26.1% | – | – | – | –
27 | CCN(CC)CC(=O)Nc1ccc(Nc2nccc(N3CCc4sccc4C3)n2)c(OC)c1 | 3.6% | 20.3% | – | – | – | –
28 | COc1cc(NC(=O)CN(C)CCN(C)C)ccc1Nc1nccc(N2CCc3sccc3C2)n1 | 20.9% | 69.7% | – | – | – | –

Source: ChEMBL document CHEMBL5036341, “Design, synthesis and biological evaluation of aminopyrimidine derivatives bearing a 4,5,6,7-tetrahydrothieno [3,2-c]pyridine as potent EGFR inhibitors” (Eur J Med Chem, 2021)
